In one test the target is DYRK1A (Rattus norvegicus, UniProt Q63470). The test can be described thus: DYRK1A kinase inhibition assay. The class given is biochemical. The settings on record: for DYRK1A (IC50 in μM) / IC50: mean of triplicates, variation max 20%, ATP 15 µM, 30 °C; for DYRK1A inhibition at 30 µM, in words: concentration of 30 µM. As to the method:
(§1) Values were background subtracted, and activities were calculated as pmoles of phosphate incorporated during a 10 min incubation. […] Controls were performed with appropriate dilutions of DMSO.
DYRK1A (rat, recombinant, expressed in E. coli as a GST fusion protein) was purified by affinity chromatography on glutathione-agarose and assayed as described.

The next test deals with CDK1/Cyclin B. The test can be described thus: CDK1/Cyclin B kinase inhibition assay. The test is classed as biochemical, starfish (Marthasterias glacialis). As to the method: as §1
CDK1/Cyclin B was extracted in homogenisation buffer from M phase starfish (Marthasterias glacialis) oocytes and purified by affinity chromatography on p9^CKShs1-Sepharose beads, from which it was eluted with free p9^CKShs1 as previously described. […] After a 10 min incubation at 30 °C, 25 µL aliquots of supernatant were spotted onto P81 phosphocellulose paper and treated as described above.

Another test deals with human lung cancer cells. Details: method as in PMID 15473647. The settings on record: concentration of 20 μM; cited from earlier work.
The subject of a further test is human colon cancer cells. Details: method as in doi:10.1016/j.procbio.2012.05.018. The settings on record: cited from earlier work.
A further test addresses Aurora 2 kinase. Details: method as in PMID 20097074, PMID 20097066. The settings on record: previous studies; cited from earlier work.
In the next test the test system is CDK2. Details: method as in PMID 20097074, PMID 20097066. The settings on record: previous studies; cited from earlier work.
A further test concerns cancer cell. Details: method as in PMID 19801998. The settings on record: cited from earlier work.
The test system of test [1] is polo-box domain of Polo-like kinase 1. More on the design: method as in PMID 19801998. The settings on record: cited from earlier work.
A further test concerns CDK4. More on the design: method as in PMID 20097074, PMID 20097066. The settings on record: previous studies; cited from earlier work.
Where [2] appears, read: mean of triplicates, variation max 20%, ATP 15 µM, histone H1, 30 °C.

The values below come from article PMC6269938, “Natural Aristolactams and Aporphine Alkaloids as Inhibitors of CDK1/Cyclin B and DYRK1A” (Molecules, 2013).

pIC50: −log10 of the molar value. Entries after “also recorded” stand apart in the source; their conditions may differ. Read-outs that look alike come from different tables or passages of the source. A value given as a limit tells only on which side of the number the result lay.

One may read the IC50 as the concentration needed to halve the response being measured. A lower IC50 goes with higher potency. For the compound `COc1cc([C@H]2OC[C@@H]3C(c4cc(OC)c(O)c(OC)c4)OC[C@H]23)ccc1O` (single isomer, unassigned; (-)) [Compound 5, (−)-medioresinol], on DYRK1A, the “DYRK1A (IC50 in μM)” value was “submicromolar” and the IC50 amounted to 0.1 µM. The compound also gave an IC50 on CDK1/Cyclin B (setting [2]) of 1.3 µM.

Turning to `COc1cc2c3c(c1O)-c1c(ccc(OC)c1OC)CC3N(C)CC2` (single isomer, unassigned; (+)) [Compound 6, (+)-corydine], the “DYRK1A inhibition at 30 µM, in words” value at DYRK1A was “inactive”. Also, the concentration for half-maximal inhibition (IC50) against DYRK1A and at CDK1/Cyclin B (setting [2]) was > 30 µM in each case. Besides, the “CDK1/Cyclin B inhibition at 30 µM, in words” value (“CDK1/Cyclin B inhibition” for short) in the test on CDK1/Cyclin B (concentration of 30 µM) is “inactive”.

On to `O=C1c2ccccc2-c2c3c(cc4ccnc1c24)OCO3` [Compound 8, liriodenine], for which the results for the IC50 on DYRK1A and against CDK1/Cyclin B (setting [2]) were 3.1 µM and > 30 µM, respectively. For the same compound, the “apoptosis induction by inhibiting CDK1/Cyclin B kinase activity, G2/M cell cycle arrest” value in the test with human lung cancer cells is reported as “induced apoptosis”. Further, the “CDK1/Cyclin B inhibition” value with CDK1/Cyclin B (concentration of 30 µM) is listed as “unable to inhibit”; in the test with CDK1/Cyclin B (concentration of 30 µM, listed as Liriodenine (8)), “did not inhibit”. For the same compound, in the test with human colon cancer cells, the “growth of human colon cancer cells, G1/S cell cycle arrest” value is “inhibited the growth”.

As to `COc1ccc2c(c1O)-c1c3c(cc4c1C(C2)N(C)CC4)OCO3` (single isomer, unassigned; (+)) [Compound 9, (+)-bulbocapnine], the “DYRK1A inhibition at 30 µM, in words” value at DYRK1A is “inactive”. The IC50 on DYRK1A and against CDK1/Cyclin B (setting [2]) was > 30 µM throughout. In addition, the “CDK1/Cyclin B inhibition” value in the test on CDK1/Cyclin B (concentration of 30 µM) was “inactive”.

As for `COc1cc2c3c(cc4c(O)cccc4c3c1OC)NC2=O` [Compound 3, velutinam], on DYRK1A, the “DYRK1A (IC50 in μM)” value is “submicromolar” and inhibition was half-maximal at 0.6 µM (IC50). Further, at CDK1/Cyclin B (setting [2]), the IC50 is 1.5 µM.

For the compound `COc1cc2ccnc3c2c(c1OC)-c1ccccc1C3=O` [Compound 13, lysicamine], the IC50 against DYRK1A is 2.4 µM; against CDK1/Cyclin B (setting [2]), > 30 µM. Also, the “CDK1/Cyclin B inhibition” value in the test with CDK1/Cyclin B (concentration of 30 µM) is reported as “unable to inhibit”; with CDK1/Cyclin B (concentration of 30 µM, listed as lysicamine (13)) it was “did not inhibit”.

As for `CN1CCc2cc3c(c4c2C1Cc1ccccc1-4)OCO3` (single isomer, unassigned; (-)) [Compound 7, (−)-roemerine], at DYRK1A, the “DYRK1A inhibition at 30 µM, in words” value was “inactive” and the IC50 turned out to be 15 µM. Besides, the “CDK1/Cyclin B inhibition” value with CDK1/Cyclin B (concentration of 30 µM) was “unable to inhibit; also recorded: inactive”. Further, the IC50 at CDK1/Cyclin B (setting [2]) is > 30 µM.

As for `COc1cc2c3c(c1OC)-c1ccccc1CC3NCC2` (single isomer, unassigned; (+)) [Compound 15, (+)-N-nornuciferine], the values for the IC50 against DYRK1A and on CDK1/Cyclin B (setting [2]) were 4.2 µM and > 30 µM, respectively. The “CDK1/Cyclin B inhibition” value in the test on CDK1/Cyclin B (concentration of 30 µM) was “unable to inhibit”; in the test with CDK1/Cyclin B (concentration of 30 µM, listed as N-nornuciferine (15)) it was “did not inhibit”.

As for `COc1c2c3c(c(OC)c1OC)-c1ccccc1CC3NCC2` (single isomer, unassigned; (-)) [Compound 14, (−)-O-methylisopiline], the “DYRK1A inhibition at 30 µM, in words” value at DYRK1A was “inactive”. The IC50 against DYRK1A and against CDK1/Cyclin B (setting [2]) was > 30 µM in each case. Moreover, the “CDK1/Cyclin B inhibition” value with CDK1/Cyclin B (concentration of 30 µM) is “inactive”.

Regarding `COc1cc2c(cc1O)CC1NCCc3cc4c(c-2c31)OCO4` (single isomer, unassigned; (+)) [Compound 11, (+)-actinodaphnine], on DYRK1A, the “DYRK1A inhibition at 30 µM, in words” value is “inactive” and the IC50 is > 30 µM. The “CDK1/Cyclin B inhibition” value in the test with CDK1/Cyclin B (concentration of 30 µM) is “inactive”. Also, the IC50 against CDK1/Cyclin B (setting [2]) is > 30 µM.

In the case of `COc1c2c(cc3c1-c1c4c(cc5c1C(C3)NCC5)OCO4)OCO2` (single isomer, unassigned; (+)) [Compound 12, (+)-11-methoxynorneolistine], in the test on CDK1/Cyclin B, the “CDK1/Cyclin B inhibition” value was “did not inhibit; also recorded: unable to inhibit” and the IC50 is > 30 µM.

Turning to `COc1ccc2c(c1O)-c1c(OC)c(O)cc3c1C(C2)N(C)CC3` (single isomer, unassigned; (+)) [Compound 10, (+)-N-methyllindcarpine], the “DYRK1A inhibition at 30 µM, in words” value on DYRK1A is “inactive”. For the same compound, the 50% inhibitory concentration (IC50) on DYRK1A and on CDK1/Cyclin B (setting [2]) was > 30 µM each time. Besides, in the test on CDK1/Cyclin B (concentration of 30 µM), the “CDK1/Cyclin B inhibition” value was “inactive”.

For `COc1c(O)cc2c3c(cc4ccccc4c13)NC2=O` [Compound 1, aristolactam AII], the “CDK1/Cyclin B inhibition” value in the test with CDK1/Cyclin B (concentration of 30 µM) was “inactive”. Moreover, at CDK1/Cyclin B (setting [2]), the IC50 was > 30 µM.

With `COc1cc2c(cc1O)CC1c3c(cc(O)c(OC)c3-2)CCN1C` (single isomer, unassigned; (+)) [Compound 16, (+)-boldine], on DYRK1A, the “DYRK1A inhibition at 30 µM, in words” value was “inactive” and the IC50 is > 30 µM. Also, the “CDK1/Cyclin B inhibition” value with CDK1/Cyclin B (concentration of 30 µM) was “inactive”. Further, the IC50 against CDK1/Cyclin B (setting [2]) was > 30 µM.

By pIC50 is commonly meant −log10 of the IC50, conventionally taken in molar units. As for `COc1c(O)cc2c3c(cc4ccc(O)cc4c13)NC2=O` [Compound 4, aristolactam AIIIA], the pIC50 on Aurora 2 kinase is 5.67; in the test on CDK2, 6.85; in the test with CDK4 it was 5.85. For the same compound, the “DYRK1A (IC50 in μM)” value on DYRK1A is “submicromolar”. Moreover, the IC50 on DYRK1A amounted to 0.08 µM; against CDK1/Cyclin B (setting [2]) it was 0.2 µM. Besides, the “cancer cell proliferation, mitotic arrest at G2/M phase, apoptosis” value in the test on cancer cell is “could inhibit cancer cell proliferation”. Also, the “ligand targeting the polo-box domain of Polo-like kinase 1” value in [1] is “new ligand”.
